Assay results published in US20240009190A1, “COMBINATION CANCER THERAPY USING CHK INHIBITOR” (SHANGHAI HUAYU BIOTECHNOLOGY CO., LTD., priority 2020, published 2024).

Columns and labels:
[1] = Mice body weight in CT-26 WT tumor model (Example 2); type: in vivo, BALB/c female mice; conditions: for Average body weight: compounds 15 mg/kg tail vein once per day, anti-m-PD-1 10 mg/kg IP once every five days; for average mice weight, tumor weight deducted: compounds 15 mg/kg, anti-m-PD-1 10 mg/kg
Description: (§1) Mice were observed every day for their physical conditions and activities, and mice body weight and tumor volume were measured every Tuesday, Thursday and Sunday. The tumor volume (V) was calculated as (length×width^2)/2.
(§2) At Day 23, mice were subject to euthanasia, from which tumors were collected, weighed and photographed. Mice body weights, tumor sizes and tumor weights were analyzed using the t-test in SPSS, and group differences were deemed statistically significant when the p-value was 0.05 or less. Tumor weight based tumor growth inhibition (TGI) and Zheng-Jun Jin's Q value were calculated.

CT-26 WT cells = assay: CT-26 WT subcutaneous tumor model, CHK inhibitors at lower dose with anti-m-PD-1 antibody (Example 2); type: in vivo, BALB/c female mice; conditions: for Average tumor size: compounds 15 mg/kg tail vein once per day, anti-m-PD-1 10 mg/kg IP once every five days; for Tumor weight based TGI: compounds 15 mg/kg, anti-m-PD-1 10 mg/kg; for Tumor weight, Average: group average of 8 mice; for Tumor weight, Mouse no. 1 / Tumor weight, Mouse no. 2 / Tumor weight, Mouse no. 3 / Tumor weight, Mouse no. 4 / Tumor weight, Mouse no. 5 / Tumor weight, Mouse no. 6 / Tumor weight, Mouse no. 7 / Tumor weight, Mouse no. 8: individual mouse
Description: The anti-tumor effect of Compound 6 at a lower dose in combination with an anti-PD-1 antibody was studied in this Example. Further, three compounds obtained by structurally modifying Compound 6, i.e., Compound 6-1, Compound 6-2 and Compound 6-3, were tested alone or in combination with an anti-PD-1 antibody for their anti-tumor effects.
At Day 0, 105 BALB/c female mice, 4-5 weeks old, were subcutaneously injected with about 200.0 μL of the CT-26 WT cell medium containing about 5×10^5 cells, respectively.
At Day 5, 80 tumor-bearing mice were randomly assigned to ten groups according to their body weights, 8 mice per group. The remaining mice were subject to euthanasia.
The ten groups of animals were administered with an anti-m-PD-1 antibody (BE0146, BioXcell) in PBS (21-040-CVR, BioXcell) at 1.0 mg/mL, Compound 6 in saline at 1.5 mg/mL, Compound 6-1 in saline at 1.5 mg/mL, Compound 6-2 in saline at 1.5 mg/mL, Compound 6-3 in saline at 1.5 mg/mL, the anti-m-PD-1 antibody+Compound 6, the anti-m-PD-1 antibody+Compound 6-1, the anti-m-PD-1 antibody+Compound 6-2, the anti-m-PD-1 antibody+Compound 6-3, and the control vehicle (saline), respectively, at doses shown in Table 3 below.
as §1, §2

MC38 cells = assay: MC38 tumor model in transgenic mice, Compound 6, anti-PD-1 antibody and gemcitabine (Example 5); type: in vivo, C57BL/6-Pdcd1^em(hPDCD1) Cd274^em1(hPD-L1)/Smoc mice; conditions: Day 23; Compound 6 15 mg/kg IP QD × 14; GEM 20 mg/kg IV QW × 2; anti-PD-1 10 mg/kg IP Q5D × 3
Description: MC38 cells were maintained at 37° C. in 5% CO2 in RPMI 1640 medium (10-040-CV, Corning cellgro) supplemented with 10% FBS (10270-106, GIBCO) and used before the 10th subculture.
Female C57BL/6-Pdcd1^em(hPDCD1) Cd274^em1(hPD-L1)/Smoc mice (Shanghai Model Organisms), 20-25 g, were subcutaneously injected with about 5×10^5 MC38 cells, respectively.
When tumors grew to 50-70 mm^3, these mice were randomly assigned to 8 groups, 8 mice per group, this day was at Day 9. From Day 9, the animals were administered with gemcitabine (GEM) in saline at 20 mg/mL, an anti-PD-1 antibody (Toripalimab, Shanghai Junshi Biosciences Co., Ltd. China) in saline at 40 mg/mL, Compound 6 in saline at 8 mg/mL, Compound 6+gemcitabine, gemcitabine+anti-PD-1, Compound 6+anti-PD-1, Compound 6+gemcitabine+anti-PD-1, and the control vehicle (5% GS), respectively, according to the dosing regimen shown in Table 11 below.
Mice were observed every day for their physical conditions and activities, and mice body weight and tumor volume were measured every other day. The tumor volume (V) was calculated as (length×width^2)/2.
Mice body weights, and tumor sizes were analyzed using the t-test in SPSS, and group differences were deemed statistically significant when the p-value was 0.05 or less.
Tumor growth inhibition (TGI) was calculated by the following formula. Tumor growth inhibition=(average tumor size in vehicle group-average tumor size in administration group)/average tumor size in vehicle group×100%
Zheng-Jun Jin's Q value was calculated as described above.

Compound	Average body weight ([1]; Day 9)	Average body weight ([1]; Day 10)	Average body weight ([1]; Day 12)	Average body weight ([1]; Day 14)	Average body weight ([1]; Day 16)	Average body weight ([1]; Day 18)	Average body weight ([1]; Day 20)	Average body weight ([1]; Day 22)	Average body weight ([1]; Day 23)	average mice weight, tumor weight deducted ([1]; Day 23)	Average tumor size (CT-26 WT cells; Day 9)	Average tumor size (CT-26 WT cells; Day 10)	Average tumor size (CT-26 WT cells; Day 12)	Average tumor size (CT-26 WT cells; Day 14)	Average tumor size (CT-26 WT cells; Day 16)	Average tumor size (CT-26 WT cells; Day 18)	Average tumor size (CT-26 WT cells; Day 20)	Average tumor size (CT-26 WT cells; Day 22)	Average tumor size (CT-26 WT cells; Day 23)	Tumor weight based TGI (CT-26 WT cells; Day 23)	other results
NC(=O)c1nnc(OC2CCCNC2)c2cc(-c3cccc(F)c3)sc12 (stereo not shown) [Compound 6-1, 2-(3-fluorophenyl)-4-(3-piperidinyloxy)-thieno[2,3-d]pyridazine-7-carboxylic acid amide]	16.29 g	16.75 g	16.89 g	17.18 g	17.79 g	17.99 g	18.32 g	18.57 g	19.31 g	17.77 g	171.59 mm^3	257.64 mm^3	367.95 mm^3	550.08 mm^3	677.06 mm^3	780.61 mm^3	972.02 mm^3	1062.24 mm^3	1179.61 mm^3	45.63%	Tumor weight, Average (CT-26 WT cells; Day 23): 1.54 g; Tumor weight, Mouse no. 1 (CT-26 WT cells; Day 23): 0.87 g; Tumor weight, Mouse no. 2 (CT-26 WT cells; Day 23): 1.19 g; Tumor weight, Mouse no. 3 (CT-26 WT cells; Day 23): 2.32 g; Tumor weight, Mouse no. 4 (CT-26 WT cells; Day 23): 2.87 g; Tumor weight, Mouse no. 5 (CT-26 WT cells; Day 23): 1.58 g; Tumor weight, Mouse no. 6 (CT-26 WT cells; Day 23): 1.68 g; Tumor weight, Mouse no. 7 (CT-26 WT cells; Day 23): 1.31 g; Tumor weight, Mouse no. 8 (CT-26 WT cells; Day 23): 0.49 g
NC(=O)c1nnc(SC2CCCNC2)c2cc(-c3cccc(F)c3)sc12 (stereo not shown) [Compound 6-2, 2-(3-fluorophenyl)-4-(3-piperidinylthio)-thieno[2,3-d]pyridazine-7-carboxylic acid amide]	16.45 g	16.69 g	16.78 g	17.22 g	17.62 g	18.05 g	18.67 g	19.14 g	19.63 g	18.04 g	196.37 mm^3	278.84 mm^3	391.83 mm^3	570.64 mm^3	698.18 mm^3	805.13 mm^3	974.34 mm^3	1196.22 mm^3	1334.63 mm^3	43.82%	Tumor weight, Average (CT-26 WT cells; Day 23): 1.59 g; Tumor weight, Mouse no. 1 (CT-26 WT cells; Day 23): 0.84 g; Tumor weight, Mouse no. 2 (CT-26 WT cells; Day 23): 1.58 g; Tumor weight, Mouse no. 3 (CT-26 WT cells; Day 23): 0.84 g; Tumor weight, Mouse no. 4 (CT-26 WT cells; Day 23): 2.56 g; Tumor weight, Mouse no. 5 (CT-26 WT cells; Day 23): 1.78 g; Tumor weight, Mouse no. 6 (CT-26 WT cells; Day 23): 2.12 g; Tumor weight, Mouse no. 7 (CT-26 WT cells; Day 23): 0.89 g; Tumor weight, Mouse no. 8 (CT-26 WT cells; Day 23): 2.11 g
NC(=O)c1nnc(CC2CCCNC2)c2cc(-c3cc(Cl)cc(Cl)c3)sc12 (stereo not shown) [Compound 6-3, 2-(3,5-dichlorophenyl)-4-(3-piperidinemethyl)-thieno[2,3-d]pyridazinyl-7-formamide]	15.99 g	16.25 g	16.51 g	17.26 g	17.91 g	18.13 g	18.75 g	19.38 g	20.06 g	18.16 g	162.03 mm^3	282.00 mm^3	417.93 mm^3	527.17 mm^3	718.27 mm^3	828.07 mm^3	1072.57 mm^3	1334.48 mm^3	1558.87 mm^3	32.73%	Tumor weight, Average (CT-26 WT cells; Day 23): 1.90 g; Tumor weight, Mouse no. 1 (CT-26 WT cells; Day 23): 2.85 g; Tumor weight, Mouse no. 2 (CT-26 WT cells; Day 23): 1.24 g; Tumor weight, Mouse no. 3 (CT-26 WT cells; Day 23): 2.76 g; Tumor weight, Mouse no. 4 (CT-26 WT cells; Day 23): 1.31 g; Tumor weight, Mouse no. 5 (CT-26 WT cells; Day 23): 1.97 g; Tumor weight, Mouse no. 6 (CT-26 WT cells; Day 23): 1.03 g; Tumor weight, Mouse no. 7 (CT-26 WT cells; Day 23): 3.12 g; Tumor weight, Mouse no. 8 (CT-26 WT cells; Day 23): 0.95 g
Nc1ccn([C@@H]2O[C@H](CO)[C@@H](O)C2(F)F)c(=O)n1 [GEM, gemcitabine, reference compound]	–	–	–	–	–	–	–	–	–	–	–	–	–	–	–	–	–	–	–	–	TGI based on tumor sizes (MC38 cells): 30.02%
